Results taken from US7919101B2 (priority 2008, dated 2011).
Values joined by “and” are separate entries in the source; they are usually repeats but may differ in a detail not shown here. Equal entries are not always repeated. Where two headings read alike, the source gives them in different places. Residues, ends and D or L forms follow the SMILES beside them.

Tests used:
Type in all cases: cell-based
[1] = system: HIV-1 RU570 (clade G, R5); assay: Inhibition of infection by primary HIV-1 isolate RU570; conditions: for Dose reduction: RU570
Description: Inhibitory activity of fusion/entry inhibitors on infection by a primary HIV-1 isolate was determined as previously described (Jiang S et al. Antimicrob Agents Chemother 48:4349-4359, 2004). Peripheral blood mononuclear cells (PBMCs) were isolated from the blood of healthy donors by standard density gradient centrifugation using Histopaque-1077 (Sigma). The cells were plated in 75 cm^2 plastic flasks and incubated at 37° C. for 2 hrs. The nonadherent cells were collected and resuspended at 5×10^6 in 10 ml RPMI-1640 medium containing 10% FBS, 5 μg/ml PHA (phytohemagglutinin) and 100 U/ml IL-2 (Sigma), followed by incubation at 37° C. for 3 days. The PHA-stimulated cells were infected with a primary HIV-1 isolates at 0.01 MOI in the absence or presence of a compound at graded concentrations. Culture media were changed every 3 days. The supernatants were collected 7 days post-infection and tested for p24 antigen by ELISA as described above. The percent inhibition of p24 production and EC50 values were calculated as described above.
(§1) 4. Synergy analysis. […] In all analyses, HIV fusion/entry inhibitors were assumed to act noncompetitively, which led to a more conservative estimate of synergy. CI values<1 and >1 indicate synergy and antagonism, respectively. Dose reductions were calculated as the compound concentrations required for inhibition of HIV-1 replication when the compound was used alone and in combination. The statistic analysis was performed by the One-Way Analysis of Variance (One-Way ANOVA) method using Origin 6.1 software.

HIV-1 NL4-3D36G = assay: Inhibition of infection by T-20-sensitive strain NL4-3D36G; conditions: for Dose reduction: NL4-3D36G
Description: 2. Inhibition of HIV infection as measured by luciferase assay. The inhibitory activity of fusion/entry inhibitors on HIV infection in TZM-bl cells was determined by using a luciferase assay (Wei X et al. Antimicrob. Agents Chemother. 46:1896-1905, 2002). Briefly, 50 μl of a compound at graded concentration in triplicate were incubated with an equal volume of an HIV-1 isolate at 0.01 multiplicity of infection (MOI) at 37° C. for 30 min, followed by addition of the mixture to 100 μl TZM-bl cells (1×10^5/ml) that were pre-cultured in a 96-well plate at 37° C. overnight. After further culture at 37° C. for 3 days, the cells were harvested and lyzed with 50 μl lysing reagent. The luciferase activity was analyzed using a luciferase kit (Promega Corp.) and a luminometer (Model: Ultra […], Tecan) according to the manufacture's instruction. The percent inhibition of cell fusion by a compound as well as EC50 and EC90 values were calculated using the software CalcuSyn.
3. Inhibition of HIV replication as measured by p24 antigen production. The inhibitory activity of fusion/entry inhibitors on HIV-1 infection as measured by p24 antigen production was determined as previously described (Zhao Q et al. AIDS Res Hum Retroviruses 18:989-997, 2002). In brief, 1×10^4 MT-2 cells were infected with an HIV-1 strain (100 TCID50) in 200 μl RPMI 1640 medium containing 10% FBS in the presence or absence of testing compounds at graded concentrations overnight. Then the culture supernatants were removed and fresh media containing no testing compounds were added. On the fourth day post-infection, 100 μl of culture supernatants were collected from each well, mixed with equal volumes of 5% Triton X-100 and assayed for p24 antigen, which was quantitated by ELISA. Briefly, wells of polystyrene plates were coated with HIV immunoglobulin (HIVIG, prepared from plasma of HIV-seropositive donors with high neutralizing titers against HIV-1IIIB), in 0.085 M carbonate-bicarbonate buffer (pH 9.6) at 4° C. overnight, followed by washes with washing buffer (0.01 M PBS containing 0.05% Tween-20) and blocking with PBS containing 1% dry fat-free milk. Virus lysates were added to the wells and incubated at 37° C. for 1 hr. […] Reactions were terminated by addition of 1N H2SO4. Absorbance at 450 nm was recorded in an ELISA reader (Ultra 384, TECAN). Recombinant protein p24, purchased from US Biological, was included for establishing standard dose response curves. Each sample was tested in triplicate. The percentage of inhibition of p24 production was calculated as previously described (Neurath A R et al. BMC Infect Dis 2:6, 2002).
as §1

[2] = system: HIV-1-mediated cell-cell fusion (H9/HIV-1IIIB cells and MT-2 cells); assay: HIV-1-mediated cell-cell fusion, dye transfer assay
Description: The inhibitory activities of the compounds on HIV-induced cell-cell fusion were determined using a dye transfer assay (Jiang S et al. Proc SPIE 3926:212-219, 2000). Briefly, H9/HIV-1IIIB cells were pre-labeled with a fluorescent dye, Calcein AM (Molecular Probes, Inc.), and incubated with a testing compound at a graded concentration at 37° C. for 30 min in a 96-well cell culture plate. Then the CD4^+ MT-2 cells were added to the H9/HIV-1IIIB cells at a ratio of 10:1, followed by incubation at 37° C. for 2 hrs. The fused and unfused calcein-labeled HIV-1-infected cells were counted under an inverted fluorescence microscope with an eyepiece micrometer disc.

[3] = in combination T-20:T-1144 (4:1)
[4] = in combination T-20:T-1144 (4:1) vs alone
[5] = in combination T-20:T-1249:T-1144 (4:1:1)
[6] = in combination T-20:T-1249:T-1144 (4:1:1) vs alone
[7] = in combination T-1144:C34 (2:1)
[8] = in combination T-1144:C34 (2:1) vs alone
[9] = in combination T-1249:T-1144 (1:1)
[10] = in combination T-1249:T-1144 (1:1) vs alone

## CC[C@H](C)[C@H](NC(=O)[C@H](C)NC(=O)[C@H](CCCNC(=N)N)NC(=O)[C@H](CC(=O)O)NC(=O)[C@H](Cc1c[nH]c2ccccc12)NC(=O)[C@H](C)NC(=O)[C@H](CCC(=O)O)NC(=O)[C@H](Cc1c[nH]c2ccccc12)NC(=O)[C@@H](NC(=O)[C@@H](NC(C)=O)[C@@H](C)O)[C@@H](C)O)C(=O)N[C@@H](C)C(=O)N[C@@H](CCC(=O)O)C(=O)N[C@@H](Cc1ccc(O)cc1)C(=O)N[C@@H](C)C(=O)N[C@@H](C)C(=O)N[C@@H](CCCNC(=N)N)C(=O)N[C@H](C(=O)N[C@@H](CCC(=O)O)C(=O)N[C@@H](C)C(=O)N[C@@H](CC(C)C)C(=O)N[C@@H](CC(C)C)C(=O)N[C@@H](CCCNC(=N)N)C(=O)N[C@@H](C)C(=O)N[C@@H](CC(C)C)C(=O)N[C@@H](CCC(N)=O)C(=O)N[C@@H](CCC(=O)O)C(=O)N[C@@H](CCC(N)=O)C(=O)N[C@@H](CCC(N)=O)C(=O)N[C@@H](CCC(=O)O)C(=O)N[C@@H](CCCCN)C(=O)N[C@@H](CC(N)=O)C(=O)N[C@@H](CCC(=O)O)C(=O)N[C@@H](C)C(=O)N[C@@H](C)C(=O)N[C@@H](CC(C)C)C(=O)N[C@@H](CCCNC(=N)N)C(=O)N[C@@H](CCC(=O)O)C(=O)N[C@@H](CC(C)C)C(N)=O)[C@@H](C)CC [T-1144] (Ac-TTWEAWDRAIAEYAARIEALLRALQEQQEKNEAALREL-NH2; N-terminus and C-terminus assumed)
[1]; RU570 (G, R5) primary isolate, peptide alone, read-out: EC50 alone
  EC50: 24.2 nM
[1]; T-20+T-1249+T-1144 4:1:1
  Dose reduction: 21.23 fold
[1]; T-20 combined with T-1144
  Dose reduction: 18.62 fold
HIV-1 NL4-3D36G; NL4-3D36G (T-20-sensitive), peptide alone
  EC50: 5.85 nM
HIV-1 NL4-3D36G; T-20+T-1249+T-1144 7:5:1
  Dose reduction: 15.81 fold
HIV-1 NL4-3D36G; T-20 combined with T-1144
  Dose reduction: 13.00 fold
[2]; [3]
  EC70 Concentration Mix: 0.008 nM
  EC95 Concentration Mix: 0.013 nM
[2]; [4]
  Potency increase at EC50: 435.500 fold
  Potency increase at EC70: 444.250 fold
  Potency increase at EC90: > 438 fold and 439.455 fold
  Potency increase at EC95: 458.462 fold
[2]; [5]
  EC70 Concentration Mix: 0.005 nM
  EC95 Concentration Mix: 0.007 nM
[2]; [6]
  Potency increase at EC50: 653.250 fold
  Potency increase at EC70: 710.800 fold
  Potency increase at EC90: 805.667 fold
  Potency increase at EC95: 851.429 fold
[2]; in combination T-20:T-1249:T-1144 (4:1:1), read-out: EC90 Concentration Mix
  EC90: 0.006 nM
[2]; [7]
  EC70 Concentration Mix: 0.408 nM
  EC95 Concentration Mix: 0.659 nM
[2]; [8]
  Potency increase at EC50: 8.511 fold
  Potency increase at EC70: 8.711 fold
  Potency increase at EC95: 9.044 fold
[2]; in combination T-1144:C34 (2:1), read-out: EC90 Concentration Mix
  EC90: 0.543 nM
[2]; [9]
  EC70 Concentration Mix: 0.232 nM
  EC95 Concentration Mix: 0.374 nM
[2]; [10]
  Potency increase at EC50: 15.017 fold
  Potency increase at EC70: 15.319 fold
  Potency increase at EC90: 15.695 fold
  Potency increase at EC95: 15.936 fold
[2]; in combination T-1249:T-1144 (1:1), read-out: EC90 Concentration Mix
  EC90: 0.308 nM
[2]; peptide tested alone
  EC70 Concentration Alone: 3.554 nM
  EC95 Concentration Alone: 5.960 nM
[2]; peptide tested alone, read-out: EC50 Concentration Alone
  EC50: 2.61 nM
[2]; peptide tested alone, read-out: EC90 Concentration Alone
  EC90: 4.83 nM
